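Step 1: Grow cells in 96-well plates. Step 2: Expose to compound for 48 hours at 5 concentrations. Step 3: Interpolate endpoints linearly; if unreached, use highest concentration. GI50 = concentration required for 50% inhibition of growth.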 Active and inactive are the calls of the source. No stated cut-off is given here; in the data, active = GI50 up to about 1.1 µM and inactive = higher.
Experiments:
Assay in all cases: NCI anticancer screen, dose series, 48 h
[1] = tested on: A498
[2] = tested on: ACHN
[3] = tested on: CAKI-1
[4] = tested on: COLO 205
[5] = tested on: HCC 2998
[6] = tested on: HCT-15
[7] = tested on: LOX IMVI
[8] = tested on: MDA-MB-231
[9] = tested on: MDA-N
[10] = tested on: MOLT-4
[11] = tested on: Malme-3M
[12] = tested on: NCI-H522
[13] = tested on: NCI/ADR-RES
[14] = tested on: OVCAR-3
[15] = tested on: RXF 393
[16] = tested on: SW-620
[17] = tested on: UACC-257
[18] = tested on: RPMI-8226
[19] = tested on: KM-20L2
[20] = tested on: HOP-18

Row | SMILES | GI50 [1] | GI50 [2] | GI50 [3] | GI50 [4] | GI50 [5] | GI50 [6] | GI50 [7] | GI50 [8] | GI50 [9] | GI50 [10] | GI50 [11] | GI50 [12] | GI50 [13] | GI50 [14] | GI50 [15] | GI50 [16] | GI50 [17] | GI50 [18] | GI50 [19] | GI50 [20]
1 | CC1=C[C@@H]2[C@@H](CC(CO)=C[C@H]3[C@@H]4C(C)(C)[C@]4(OCC(C)C)[C@H](OCC(C)C)[C@@H](C)[C@]23O)C1=O | 1.08 µM (active) | 1.23 µM (inactive) | 1.38 µM (inactive) | 0.243 µM (active) | 0.574 µM (active) | 1.42 µM | 1.25 µM (inactive) | 1.39 µM (inactive) | 0.649 µM (active) | 0.646 µM (active) | 0.766 µM (active) | 2.2 µM (inactive) | 2.55 µM (inactive) | 2.17 µM (inactive) | 1.54 µM (inactive) | 1.19 µM (inactive) | 1.62 µM (inactive) |  |  | 
2 | N#Cc1c(N)nc(Nc2cccc3ccccc23)c(C#N)c1C#N | 3.5 µM (inactive) | 4.78 µM (inactive) | 6.25 µM (inactive) | > 10 µM (inactive) | 8.43 µM (inactive) | 4.17 µM | 2.53 µM (inactive) | 3.73 µM (inactive) | 1.84 µM (inactive) | 3.03 µM (inactive) | > 10 µM (inactive) | 2.9 µM (inactive) | 2.71 µM (inactive) | 2.3 µM (inactive) | > 10 µM (inactive) | 3.48 µM (inactive) |  | 2.61 µM (inactive) |  | 
3 | COC(=O)C(NC(=O)c1ccccc1)C(c1c(O)cc(O)cc1O)P(=O)(OC)OC (configuration not stated) | > 100 µM (inactive) | > 100 µM (inactive) | > 100 µM (inactive) | > 100 µM (inactive) | > 100 µM (inactive) | > 100 µM | > 100 µM (inactive) |  |  | > 100 µM (inactive) |  | > 100 µM (inactive) |  |  |  | > 100 µM (inactive) | > 100 µM (inactive) | 95.9 µM (inactive) | > 100 µM (inactive) | 
4 | COC(=O)CCC(=O)c1ccc2c(c1)CCC2 | > 100 µM (inactive) | > 100 µM (inactive) | > 100 µM (inactive) |  | > 100 µM (inactive) | > 100 µM | > 100 µM (inactive) | > 100 µM (inactive) | > 100 µM (inactive) | > 100 µM (inactive) | > 100 µM (inactive) | > 100 µM (inactive) | > 100 µM (inactive) | > 100 µM (inactive) | > 100 µM (inactive) | > 100 µM (inactive) | > 100 µM (inactive) | > 100 µM (inactive) |  | 
5 | O=C1C[C@@H]2[C@@H](C=CC23CCCC3)N1O | > 100 µM (inactive) | > 100 µM (inactive) | > 100 µM (inactive) | > 100 µM (inactive) | > 100 µM (inactive) | > 100 µM | > 100 µM (inactive) |  |  | > 100 µM (inactive) | > 100 µM (inactive) | > 100 µM (inactive) |  | > 100 µM (inactive) | > 100 µM (inactive) | > 100 µM (inactive) | > 100 µM (inactive) | > 100 µM (inactive) | > 100 µM (inactive) | > 100 µM (inactive)
6 | O=S(=O)(N=S(c1ccccc1)c1ccccc1)c1ccccc1 | 78.9 µM (inactive) | > 100 µM (inactive) |  | > 100 µM (inactive) |  | > 100 µM |  |  |  | > 100 µM (inactive) | > 100 µM (inactive) |  | > 100 µM (inactive) | > 100 µM (inactive) | > 100 µM (inactive) | > 100 µM (inactive) | > 100 µM (inactive) | > 100 µM (inactive) |  | 
7 | N#CCCN(CCC#N)c1ccc(C(=N/c2ccc(Cl)cc2)/N=N/c2ccc(Cl)cc2)cc1 | 19.9 µM (inactive) | 18.2 µM (inactive) | 16.4 µM (inactive) | 16.2 µM (inactive) | 12.8 µM (inactive) | 10.7 µM |  | 19.5 µM (inactive) | 19.5 µM (inactive) | 22.5 µM (inactive) |  | 17 µM (inactive) | 17.2 µM (inactive) | 16.7 µM (inactive) | 14.3 µM (inactive) | 17.7 µM (inactive) | 15 µM (inactive) | 47.2 µM (inactive) |  | 
8 | NC(CCCCO)C(=O)O (configuration not stated) | > 100 µM (inactive) | > 100 µM (inactive) | > 100 µM (inactive) | > 100 µM (inactive) | > 100 µM (inactive) | > 100 µM | > 100 µM (inactive) | > 100 µM (inactive) |  |  | > 100 µM (inactive) | > 100 µM (inactive) | > 100 µM (inactive) | > 100 µM (inactive) | > 100 µM (inactive) | > 100 µM (inactive) | > 100 µM (inactive) | > 100 µM (inactive) |  | 
9 | C=C1C(=O)O[C@@H]2[C@H](O)[C@@H](C)[C@@H]3C=CC(=O)[C@@]3(C)[C@H](OC(=O)C=C(C)C)[C@H]12 | 2.21 µM (inactive) |  | 0.536 µM (active) | 0.49 µM (active) | 1.79 µM (inactive) | 0.242 µM | 0.457 µM (active) |  |  | 0.345 µM (active) | 0.587 µM (active) | 0.179 µM (active) | 0.536 µM (active) | 0.895 µM (active) |  | 0.353 µM (active) | 1.59 µM (inactive) | 0.294 µM (active) | 1.66 µM (inactive) | 1.67 µM (inactive)
10 | O=S(O)CCCCCSSSCCCCCS(=O)O | > 100 µM (inactive) | > 100 µM (inactive) |  |  | > 100 µM (inactive) |  | 27.1 µM (inactive) |  |  | 4.81 µM (inactive) | 6.5 µM (inactive) | 24 µM (inactive) |  | 20.2 µM (inactive) | 14.4 µM (inactive) |  | 24.5 µM (inactive) |  | > 100 µM (inactive) | 
11 | Nc1nc(=O)c2c([nH]1)NCC(CNc1ccc(C(=O)N[C@@H](CCC(=O)O)C(=O)O)cc1)N2C=O (some centres not stated) [LEUCOVORIN CALCIUM] |  |  | 102 µM (inactive) | > 125 µM (inactive) | > 125 µM (inactive) | > 125 µM | > 125 µM (inactive) |  |  | > 125 µM (inactive) | > 125 µM (inactive) | > 125 µM (inactive) | > 125 µM (inactive) | > 125 µM (inactive) | > 125 µM (inactive) | > 125 µM (inactive) | > 125 µM (inactive) | > 125 µM (inactive) | > 125 µM (inactive) | > 125 µM (inactive)
12 | CCCCCCCCCCCCCCCCCCOP(=O)([O-])OCC[N+](C)(C)C [OCTADECYLPHOSPHONOCHOLINE] | 8.41 µM (inactive) | < 0.0488 µM (active) | 0.321 µM (active) | 0.146 µM (active) | 0.245 µM (active) | 0.644 µM | 0.863 µM (active) | 0.0447 µM (active) |  | 0.295 µM (active) | 1.02 µM (active) | 0.419 µM (active) | 1.32 µM (inactive) | 0.877 µM (active) | 2.45 µM (inactive) | 0.771 µM (active) | 1.19 µM (inactive) | 0.276 µM (active) | 3.38 µM (inactive) | 15.9 µM (inactive)
